Reference: patent publication US20070093455A1, “10-substituted tetracyclines and methods of use thereof” (priority 2005, published 2007)
Values after ≈ are worked out from the molar mass of the structure shown.

Tested on: S. aureus RN450
Assay: In vitro MIC assay, S. aureus RN450
Assay type: cell-based
Settings: Staphylococcus aureus, broth microdilution, 35° C., 18-24 hours

| Compound | MIC [µg/mL] |
| --- | --- |
| CC(=O)c1cccc2c1C(=O)C1=C(O)[C@]3(O)C(=O)C(C(N)=O)=C(O)[C@@H](N(C)C)C3CC1C2 (some centres unmarked) [N] | 22 to 43 (≈ 49.9 to 97.6 µM) |
| CN(C)[C@@H]1C(O)=C(C(N)=O)C(=O)[C@@]2(O)C(O)=C3C(=O)c4c(cccc4OS(=O)(=O)C(F)(F)F)CC3CC12 (some centres unmarked) [O] | 22 to 43 (≈ 40.3 to 78.7 µM) |
| CN(C)c1cc2c(c3c1CC1CC4[C@H](N(C)C)C(O)=C(C(N)=O)C(=O)[C@@]4(O)C(O)=C1C3=O)OC(=O)N(CC(C)(C)C)C2 (some centres unmarked) [P] | 44 to 64 (≈ 75.5 to 110 µM) |
| CN(C)c1cc2cc(-c3ccc(N)cc3)oc2c2c1CC1CC3[C@H](N(C)C)C(O)=C(C(N)=O)C(=O)[C@@]3(O)C(O)=C1C2=O (some centres unmarked) [Q] | 0 to 21 |

Tested on: S. aureus RN4250
Assay: In vitro MIC assay, S. aureus RN4250
Assay type: cell-based
Settings: Staphylococcus aureus, broth microdilution, 35° C., 18-24 hours

| Compound | MIC [µg/mL] |
| --- | --- |
| CC(=O)c1cccc2c1C(=O)C1=C(O)[C@]3(O)C(=O)C(C(N)=O)=C(O)[C@@H](N(C)C)C3CC1C2 (some centres unmarked) [N] | 44 to 64 (≈ 99.9 to 145 µM) |
| CN(C)[C@@H]1C(O)=C(C(N)=O)C(=O)[C@@]2(O)C(O)=C3C(=O)c4c(cccc4OS(=O)(=O)C(F)(F)F)CC3CC12 (some centres unmarked) [O] | 22 to 43 (≈ 40.3 to 78.7 µM) |
| CN(C)c1cc2c(c3c1CC1CC4[C@H](N(C)C)C(O)=C(C(N)=O)C(=O)[C@@]4(O)C(O)=C1C3=O)OC(=O)N(CC(C)(C)C)C2 (some centres unmarked) [P] | 44 to 64 (≈ 75.5 to 110 µM) |
| CN(C)c1cc2cc(-c3ccc(N)cc3)oc2c2c1CC1CC3[C@H](N(C)C)C(O)=C(C(N)=O)C(=O)[C@@]3(O)C(O)=C1C2=O (some centres unmarked) [Q] | 0 to 21 |

Tested on: E. coli translation
Assay: In vitro translation assay for inhibition of bacterial protein synthesis (E. coli S30 Extract System, luciferase)
Assay type: biochemical
Settings: 37° C., 1 hour, luciferase luminescence
Experimental: As a further measure of antibacterial activity, an E. coli S30 Extract System was used to quantitate inhibition of E. coli translation by tetracycline derivatives. This system contained all required components for translation, including a nucleic acid template which, when translated, produces functional luciferase. The reactions were set up with E. coli S30 extract, amino acids, DNA template and selected tetracycline compounds at concentrations of 100, 50, 25, 10, 5, and 1 μg/ml. The reactions were incubated at 37° C. for 1 hour and analyzed by adding the reaction mix to Steady-Glo Luciferase Assay substrate (Promega, Madison Wis.). Luminescence was measured with the Wallac Victor5 plate reader and inhibition is calculated by comparing luciferase activity in experimental reactions versus controls.

| Compound | IC20 [µM] | IC50 [µM] |
| --- | --- | --- |
| CC(=O)c1cccc2c1C(=O)C1=C(O)[C@]3(O)C(=O)C(C(N)=O)=C(O)[C@@H](N(C)C)C3CC1C2 (some centres unmarked) [N] | < 100 | < 100 |
| CN(C)[C@@H]1C(O)=C(C(N)=O)C(=O)[C@@]2(O)C(O)=C3C(=O)c4c(cccc4OS(=O)(=O)C(F)(F)F)CC3CC12 (some centres unmarked) [O] | < 100 | < 100 |
| CN(C)c1cc2cc(-c3ccc(N)cc3)oc2c2c1CC1CC3[C@H](N(C)C)C(O)=C(C(N)=O)C(=O)[C@@]3(O)C(O)=C1C2=O (some centres unmarked) [Q] | < 100 | < 100 |

Tested on: S. pneumoniae 157E
Assay: In vitro MIC assay, S. pneumoniae 157E
Assay type: cell-based
Settings: Streptococcus pneumoniae, broth supplemented with lysed horse blood, 35° C., 18-24 hours

| Compound | MIC [µg/mL] |
| --- | --- |
| CC(=O)c1cccc2c1C(=O)C1=C(O)[C@]3(O)C(=O)C(C(N)=O)=C(O)[C@@H](N(C)C)C3CC1C2 (some centres unmarked) [N] | 44 to 64 (≈ 99.9 to 145 µM) |
| CN(C)[C@@H]1C(O)=C(C(N)=O)C(=O)[C@@]2(O)C(O)=C3C(=O)c4c(cccc4OS(=O)(=O)C(F)(F)F)CC3CC12 (some centres unmarked) [O] | 44 to 64 (≈ 80.5 to 117 µM) |
| CN(C)c1cc2c(c3c1CC1CC4[C@H](N(C)C)C(O)=C(C(N)=O)C(=O)[C@@]4(O)C(O)=C1C3=O)OC(=O)N(CC(C)(C)C)C2 (some centres unmarked) [P] | 44 to 64 (≈ 75.5 to 110 µM) |
| CN(C)c1cc2cc(-c3ccc(N)cc3)oc2c2c1CC1CC3[C@H](N(C)C)C(O)=C(C(N)=O)C(=O)[C@@]3(O)C(O)=C1C2=O (some centres unmarked) [Q] | 22 to 43 (≈ 38.4 to 75.1 µM) |

Tested on: COS-1 or CHO cell
Assay: Mammalian cell cytotoxicity assay (Resazurin; Alamar Blue)
Assay type: cell-based
Settings: COS-1 or CHO cells, 24 hour incubation
Experimental: To predict the in vivo risks associated with the compounds of the invention, a soluble, non-toxic redox dye (“Resazurin”; Alamar Blue) was used to assess a compound's effect on cellular metabolism. COS-1 or CHO cell suspensions were prepared, seeded into 96-well black-walled microtiter plates, and incubated overnight at 37° C., in 5% CO2 and approximately 95% humidity. On the next day, serial dilutions of test drug were prepared and transferred to cell plates. Following a 24 hour incubation period, the media/drug was aspirated, and 50 μL of resazurin was added. After a 2 hour incubation, fluorescence measurements were taken (excitation […], emission 590 nm) and toxic effects in treated versus control cells were compared based on the degree of fluorescence in each well.

| Compound | cytotoxicity at 75 μg/mL |
| --- | --- |
| CC(=O)c1cccc2c1C(=O)C1=C(O)[C@]3(O)C(=O)C(C(N)=O)=C(O)[C@@H](N(C)C)C3CC1C2 (some centres unmarked) [N] | minimal cytotoxicity |
| CN(C)c1cc2c(c3c1CC1CC4[C@H](N(C)C)C(O)=C(C(N)=O)C(=O)[C@@]4(O)C(O)=C1C3=O)OC(=O)N(CC(C)(C)C)C2 (some centres unmarked) [P] | minimal cytotoxicity |

Tested on: P. aeruginosa K1033
Assay: In vitro MIC assay, P. aeruginosa K1033
Assay type: cell-based
Settings: Pseudomonas aeruginosa, broth microdilution, 35° C., 18-24 hours

| Compound | MIC [µg/mL] |
| --- | --- |
| CC(=O)c1cccc2c1C(=O)C1=C(O)[C@]3(O)C(=O)C(C(N)=O)=C(O)[C@@H](N(C)C)C3CC1C2 (some centres unmarked) [N] | 0 to 21 |
| CN(C)[C@@H]1C(O)=C(C(N)=O)C(=O)[C@@]2(O)C(O)=C3C(=O)c4c(cccc4OS(=O)(=O)C(F)(F)F)CC3CC12 (some centres unmarked) [O] | 0 to 21 |

Tested on: S. aureus MRSA5
Assay: In vitro MIC assay, S. aureus MRSA5
Assay type: cell-based
Settings: Staphylococcus aureus, broth microdilution, 35° C., 18-24 hours

| Compound | MIC [µg/mL] |
| --- | --- |
| CC(=O)c1cccc2c1C(=O)C1=C(O)[C@]3(O)C(=O)C(C(N)=O)=C(O)[C@@H](N(C)C)C3CC1C2 (some centres unmarked) [N] | 44 to 64 (≈ 99.9 to 145 µM) |
| CN(C)[C@@H]1C(O)=C(C(N)=O)C(=O)[C@@]2(O)C(O)=C3C(=O)c4c(cccc4OS(=O)(=O)C(F)(F)F)CC3CC12 (some centres unmarked) [O] | 22 to 43 (≈ 40.3 to 78.7 µM) |
| CN(C)c1cc2c(c3c1CC1CC4[C@H](N(C)C)C(O)=C(C(N)=O)C(=O)[C@@]4(O)C(O)=C1C3=O)OC(=O)N(CC(C)(C)C)C2 (some centres unmarked) [P] | 44 to 64 (≈ 75.5 to 110 µM) |
| CN(C)c1cc2cc(-c3ccc(N)cc3)oc2c2c1CC1CC3[C@H](N(C)C)C(O)=C(C(N)=O)C(=O)[C@@]3(O)C(O)=C1C2=O (some centres unmarked) [Q] | 0 to 21 |

Tested on: H. influenza (ATCC 49247)
Assay: In vitro MIC assay, H. influenza (ATCC 49247)
Assay type: cell-based
Settings: read-out: MIC H. influenza (ATCC 49247)

| Compound | MIC [µg/mL] |
| --- | --- |
| CC(=O)c1cccc2c1C(=O)C1=C(O)[C@]3(O)C(=O)C(C(N)=O)=C(O)[C@@H](N(C)C)C3CC1C2 (some centres unmarked) [N] | 44 to 64 (≈ 99.9 to 145 µM) |
| CN(C)[C@@H]1C(O)=C(C(N)=O)C(=O)[C@@]2(O)C(O)=C3C(=O)c4c(cccc4OS(=O)(=O)C(F)(F)F)CC3CC12 (some centres unmarked) [O] | 44 to 64 (≈ 80.5 to 117 µM) |
| CN(C)c1cc2c(c3c1CC1CC4[C@H](N(C)C)C(O)=C(C(N)=O)C(=O)[C@@]4(O)C(O)=C1C3=O)OC(=O)N(CC(C)(C)C)C2 (some centres unmarked) [P] | 44 to 64 (≈ 75.5 to 110 µM) |
| CN(C)c1cc2cc(-c3ccc(N)cc3)oc2c2c1CC1CC3[C@H](N(C)C)C(O)=C(C(N)=O)C(=O)[C@@]3(O)C(O)=C1C2=O (some centres unmarked) [Q] | 44 to 64 (≈ 76.8 to 112 µM) |

Tested on: E. coli MG 1655 DWAK
Assay: In vitro MIC assay, E. coli MG 1655 DWAK
Assay type: cell-based
Settings: Escherichia coli, MG1655DWAK; broth microdilution, 35° C., 18-24 hours
Experimental: The following assay was used to determine the efficacy of tetracycline compounds against common bacteria. Serial dilutions of compounds were prepared in microdilution plates using a Tecan robotic workstation. Mueller Hinton broth cultures of gram negative and gram positive strains were grown or adjusted to match the turbidity of a 0.5 McFarland standard. 1:200 dilutions were made in appropriate broth (cation supplemented Mueller Hinton broth or Haemophilus test medium) to allow a final inoculum of 1×10^5 cfu. Lysed horse blood was used to supplement broth for testing S. pneumoniae. The plates were incubated at 35° C. in ambient air for 18-24 hours, read spectrophotometrically, and checked manually for evidence of bacterial growth. Serial dilutions of compounds were also added to Brucella agar supplemented with laked sheep blood for P. acnes tests. A standard inoculum was transferred to the plate using a stainless steel replicator. After 48 hours of anaerobic incubation at 35° C. plates were examined. The MIC was defined as the lowest concentration of the tetracycline compound that inhibits growth. Table 3 gives the MIC (μg/mL) of selected substituted tetracycline compounds against a variety of gram positive and gram negative bacteria.

| Compound | MIC [µg/mL] |
| --- | --- |
| CC(=O)c1cccc2c1C(=O)C1=C(O)[C@]3(O)C(=O)C(C(N)=O)=C(O)[C@@H](N(C)C)C3CC1C2 (some centres unmarked) [N] | 0 to 21 |
| CN(C)[C@@H]1C(O)=C(C(N)=O)C(=O)[C@@]2(O)C(O)=C3C(=O)c4c(cccc4OS(=O)(=O)C(F)(F)F)CC3CC12 (some centres unmarked) [O] | 0 to 21 |

Tested on: E. coli (ATCC 25922)
Assay: In vitro MIC assay, E. coli (ATCC 25922)
Assay type: cell-based
Settings: Escherichia coli, ATCC25922; broth microdilution, 35° C., 18-24 hours

| Compound | MIC [µg/mL] |
| --- | --- |
| CC(=O)c1cccc2c1C(=O)C1=C(O)[C@]3(O)C(=O)C(C(N)=O)=C(O)[C@@H](N(C)C)C3CC1C2 (some centres unmarked) [N] | 44 to 64 (≈ 99.9 to 145 µM) |
| CN(C)[C@@H]1C(O)=C(C(N)=O)C(=O)[C@@]2(O)C(O)=C3C(=O)c4c(cccc4OS(=O)(=O)C(F)(F)F)CC3CC12 (some centres unmarked) [O] | 44 to 64 (≈ 80.5 to 117 µM) |

Tested on: Mouse 3T3 fibroblast cells
Assay: Phototoxicity assay (neutral red)
Assay type: cell-based
Settings: 3T3 cells, UV light 1.6-1.8 mW/cm^2, 30 μM
Experimental: Mouse 3T3 fibroblast cells were harvested and plated at a concentration of 1×10^5 cells/mL. Drug dilutions were made in HBSS and added to the plates. Duplicate plates were then incubated in the dark (for controls), or under UV light (meter reading of 1.6-1.8 mW/cm^2) for 50 minutes. Cells were then washed with HBSS, fresh medium was added, and plates were then incubated overnight. The following day, neutral red was added as an indicator of cell viability and plates were incubated for an additional 3 hours. Cells were then washed with HBSS and a solution of 50% EtOH, 10% glacial acetic acid is added. After a 20 minute incubation period, plates absorbance at 535 nm were read using a Wallac Victor 5 spectrophotometer. The phototoxicity in light-treated and control cultures was then compared.

| Compound | phototoxicity at 30 μM, incubated in the UV light |
| --- | --- |
| CN(C)c1cc2c(c3c1CC1CC4[C@H](N(C)C)C(O)=C(C(N)=O)C(=O)[C@@]4(O)C(O)=C1C3=O)OC(=O)N(CC(C)(C)C)C2 (some centres unmarked) [P] | minimally phototoxic |
